Measurements reported in patent publication US20100016434A1, “Inhibitors of Egln3 Activity for the Treatment of Neurodegenerative Disorders” (priority 2005, published 2010).

How the values were obtained:
[1] = target: T1, EGLN3 (Homo sapiens, UniProt Q9H6Z9); assay: EGLN3 hydroxylation assay: HIF1α-derived peptide, capture of 35S-labeled pVHL; assay type: biochemical; conditions: increasing amount of succinate; EGLN3 in vitro translate
T1 construct: HA; made in house; host or cells: in vitro translation in reticulocyte lysate
T1 sequence (Q9H6Z9 whole entry): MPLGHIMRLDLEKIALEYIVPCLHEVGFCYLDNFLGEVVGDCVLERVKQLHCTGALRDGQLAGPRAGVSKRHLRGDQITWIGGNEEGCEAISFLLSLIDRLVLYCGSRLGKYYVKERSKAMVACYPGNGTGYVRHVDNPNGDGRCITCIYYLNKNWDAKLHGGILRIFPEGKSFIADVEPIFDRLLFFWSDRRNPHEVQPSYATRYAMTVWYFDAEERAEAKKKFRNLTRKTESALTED

[2] = test system: PC12 cells; assay: Apoptosis after NGF withdrawal in differentiated PC12 cells (GFP-Histone nuclei scoring); assay type: cell-based, rat
Protocol: FIG. 5: (A) Anti-SM20/EGLN3 immunoblot analysis of PC12 cells treated as in FIG. 3A. SM-20 in vitro translate included in lane 1 as a control. (B and D) Representative fluorescent photomicrographs (B) and anti-HA immunoblot analysis (D) of PC12 cells transfected to produce GFP-Histone and the indicated HA-EGLN species. White arrows in […] indicate apoptotic nuclei. (C) Percent of GFP-positive nuclei with apoptotic changes after transfection with 0.5 or 1.0 μg of the indicated plasmids. (E and F) Representative fluorescent photomicrographs of PC12 cells transfected with the indicated siRNAs and a plasmid encoding GFP-Histone followed by treatment with NGF for […] (‘+NGF’), which was then withdrawn for 24 hours (‘−NGF’). White arrows indicate apoptotic nuclei, which were quantitated in (E) as percent of GFP-positive nuclei. (G and H) Representative fluorescent photomicrographs (F) of PC12 cells transfected to produce GFP-Histone and treated with NGF for 5 days (‘+NGF’), which was then withdrawn for 24 hours (‘−NGF’). Where indicated cells were exposed to 100 μM CoCl2 or 1% hypoxia during NGF withdrawal. White arrows indicate apoptotic nuclei, which were quantitated in (G) as % of GFP-positive nuclei.
(§1) (B) FACS profiles of PC12 cells stained with the ROS-sensitive dye CM-H2DCFDA after treatment with the indicated SDH inhibitors or the ROS-inducing agent Rotenone (Ro; 20 μM) in the presence or absence of the ROS scavenger ascorbic acid (AA; 100 μM). C=control. (C and D) Representive fluorescent photomicrographs of PC12 cells (C) transfected to produce GFP-Histone alone (GFP-His) or GFP-Histone and EGLN3 (EGLN3). The SDH inhibitors 3-NPA (300 t-IM), MA (300 I-LM), or TTFA (200 ˜M) were added where indicated. White arrows indicate apoptotic nuclei, which were quantitated in (D) as percent of GFP-positive nuclei. (E) Immunoblot analysis of PC12 cells treated with the indicated chemicals or vehicle (C). (F) Percent of GFP-positive PC12 nuclei undergoing apoptosis after transfection to produce GFP-Histone alone (GFP-His) or GFP-Histone and EGLN3 (EGLN3) in the presence or absence of SDH inhibitors. 100 μM AA was also present where indicated. (G) Percent of GFP-positive PC 12 nuclei undergoing apoptosis after transfection with the indicated siRNAs and a plasmid encoding GFP-Histone followed by treatment with NGF for 5 days (‘+NGF’), which was then withdrawn for 24 hours (‘−NGF’). […]
Undifferentiated PC12 cells were plated onto collagen-coated 6-well plates 1 day before transfection with LIPOFECTAMINE 2000 reagent (Invitrogen) according to the manufacturer's instructions. […] Nuclei that were condensed or fragmented were scored as apoptotic. Approximately 400 cells were scored for each set of conditions and all assays were performed in triplicate.

[3] = test system: PC12 cells; assay: EGLN3-induced apoptosis in transfected undifferentiated PC12 cells (GFP-Histone nuclei scoring); assay type: cell-based, rat; conditions: coadministration of 100 μM AA with SDH inhibitors
Protocol: as §1, with “indicated.” for “indicated. (G) Percent of GFP-positive PC 12 nuclei undergoing apoptosis after transfection with the indicated siRNAs and a plasmid encoding GFP-Histone followed by treatment with NGF for 5 days (‘+NGF’), which was then withdrawn for 24 hours (‘−NGF’).”
Undifferentiated PC12 cells were plated onto collagen-coated 6-well plates 1 day before transfection with LIPOFECTAMINE 2000 reagent (Invitrogen) according to the manufacturer's instructions. […] Nuclei that were condensed or fragmented were scored as apoptotic. Approximately 400 cells were scored for each set of conditions and all assays were performed in triplicate. […]

[4] = test system: PC12 cells; assay: ROS analysis by FACS with CM-H2DCFDA; assay type: cell-based, rat; conditions: 100 μM AA
Protocol: (B) FACS profiles of PC12 cells stained with the ROS-sensitive dye CM-H2DCFDA after treatment with the indicated SDH inhibitors or the ROS-inducing agent Rotenone (Ro; 20 μM) in the presence or absence of the ROS scavenger ascorbic acid (AA; 100 μM). C=control. (C and D) Representive fluorescent photomicrographs of PC12 cells (C) transfected to produce GFP-Histone alone (GFP-His) or GFP-Histone and EGLN3 (EGLN3). The SDH inhibitors 3-NPA (300 t-IM), MA (300 I-LM), or TTFA (200 ˜M) were added where indicated. White arrows indicate apoptotic nuclei, which were quantitated in (D) as percent of GFP-positive nuclei. (E) Immunoblot analysis of PC12 cells treated with the indicated chemicals or vehicle (C). (F) Percent of GFP-positive PC12 nuclei undergoing apoptosis after transfection to produce GFP-Histone alone (GFP-His) or GFP-Histone and EGLN3 (EGLN3) in the presence or absence of SDH inhibitors. 100 μM AA was also present where indicated. (G) Percent of GFP-positive PC 12 nuclei undergoing apoptosis after transfection with the indicated siRNAs and a plasmid encoding GFP-Histone followed by treatment with NGF for 5 days (‘+NGF’), which was then withdrawn for 24 hours (‘−NGF’).
PC12 cells were incubated for 1 hr with 5 μM CM-H2DCFDA (Molecular Probes), harvested, resuspended at 10^6 cells/ml in PBS supplemented with 7% FBS, and analyzed by FACS.

[5] = test system: JunB; assay: Immunoblot analysis of JunB in 786-O renal carcinoma subclones; assay type: cell-based, human; conditions: 786-O cells treated with PKC inhibitor
Protocol: FIG. 2: (A) Immunoblot analysis of 786-O VHL(−/−) renal carcinoma cells retrovirally infected to produce the indicated short hairpin RNAs (shRNA) or wild-type pVHL (VHL). (B) Immunoblot analyis of RC3 cells and WT7 cells; where indicated, WT7 cells were treated with DFO or infected to produce HIF2α P405A; P531A or with empty retrovirus. (C) Immunoblot analysis of indicated 786-O subclones grown in presence or absence of DFO; (*)=non-specific band. (D) Immunoblot analysis of A498 and 786-O cells transfected to produce the indicated HA-pVHL variants or with empty vector. Arrow indicates a slowly migrating form of aPKC. (E) In vitro aPKC activity. Anti-aPKC immunoprecipitates of the indicated cell lines under antibody excess conditions were incubated with a peptidic aPKC substrate in the presence of ^32P-γ-ATP. Shown are incorporated ^32P values. (F) Immunoblot analysis of 786-O cells treated with the PKC inhibitor GF109230X.
Twenty μg of nuclear extract per lane, prepared using a NE-PER extraction kit (Pierce Biotechnology, Inc., Rockford Ill.) and measured by the Bradford assay, was resolved on 10% or 12% SDS-PAGE gels and transferred to nitrocellulose membrane (Bio-Rad Laboratories, Hercules Calif.) to detect endogenous JunB and HIF2α. […] Bound protein was detected with a Horseradish Peroxidase (HRP)-conjugated secondary antibodies and an enhanced chemiluminesence kit (Pierce).

[6] = test system: HIF2α; assay: Immunoblot analysis of HIF2α in 786-O cells; assay type: cell-based, human; conditions: 786-O cells treated with PKC inhibitor
Excerpt: (A and B) Immunoblot analysis of 786-O cells treated with the PKC inhibitor GF109230X.
Twenty μg of nuclear extract per lane, prepared using a NE-PER extraction kit (Pierce Biotechnology, Inc., Rockford Ill.) and measured by the Bradford assay, was resolved on 10% or 12% SDS-PAGE gels and transferred to nitrocellulose membrane (Bio-Rad Laboratories, Hercules Calif.) to detect endogenous JunB and HIF2α. After blocking in TBS with 5% nonfat milk, the membranes were probed with anti-JunB monoclonal antibody (C-11; Santa Cruz Biotechnology, Inc., Santa Cruz Calif.) or anti-HIF2α rabbit polyclonal antibody (NB100-122; Novus Biologicals, Inc., Littleton Colo.). Bound protein was detected with a Horseradish Peroxidase (HRP)-conjugated secondary antibodies and an enhanced chemiluminesence kit (Pierce).

[7] = SDH inhibitors 300 μM, NGF withdrawn for 24 hours

In the case of `O=C(O)CCC(=O)O` [succinate], the EGLN3 hydroxylase activity [1] is reported as “diminished”.

With `O=C(O)CC[N+](=O)[O-]` [3-NPA, 3-nitroproprionic acid] the “Apoptosis after NGF withdrawal” value [2, 7] was “diminished apoptosis”.

In the case of `O=C(O)CCC(=O)C(=O)O` [2-OG, 2-oxoglutarate], the “Apoptosis after NGF withdrawal in SDH D siRNA-transfected cells” value ([2]; 0.5 mM 2-oxoglutarate added to the media 24 hours before NGF withdrawal) is reported as “partially restored”.

For `[Cl][Co][Cl]` [cobalt chloride], the “Apoptosis after NGF withdrawal” value ([2]; 100 μM CoCl2 during NGF withdrawal, 24 hours) was “decreased”.

In the case of `O=C1O[C@H]([C@@H](O)CO)C(O)=C1O` [ascorbic acid], the “Effect on the action of the SDH inhibitors on EGLN3-induced apoptosis” value [3] is reported as “failed to mitigate” and the “ROS induction by SDH inhibitors” value [4] is reported as “blocking ROS induction”.

For `O=C(O)CC(=O)O` [MA, malonic acid], the “Apoptosis after NGF withdrawal” value [2, 7] was “diminished apoptosis”.

In the case of `CN(C)CCCn1cc(C2=C(c3c[nH]c4ccccc34)C(=O)NC2=O)c2ccccc21` [GF109203X], the JunB levels [5] is reported as “downregulated” and the HIF2α levels [6] is reported as “does not affect”.
